Results from paper PMC7913927, “Leishmanicidal Activity of Betulin Derivatives in Leishmania amazonensis; Effect on Plasma and Mitochondrial Membrane Potential, and Macrophage Nitric Oxide and Superoxide Production” (Microorganisms, 2021).
“And” between values parts separate entries of the source, which are not always exact repeats. Identical values can stand only once. Like-named read-outs stand apart in the source and are kept apart here.

Test system: VE98MR intracellular amastigotes in J774.1 macrophages
Experiment: Macrophage-amastigote model, patient isolate VE98MR
Type: cell-based, Leishmania amazonensis
Conditions: for Regresion (GraphPad 6) of %Control vs dose (50% inhibitory concentration) / Growth (%) Exp1 %Control / Growth (%) Exp1 A/100MØ / Growth (%) Exp1 A/MØ / Growth (%) Exp1 Infección / Growth (%) Exp2 %Control / Growth (%) Exp2 A/100MØ / Growth (%) Exp2 A/MØ / Growth (%) Exp2 Infección / Growth (%) Exp3 %Control / Growth (%) Exp3 A/100MØ / Growth (%) Exp3 A/MØ / Growth (%) Exp3 Infección / Average A/100MØ: VE98MR; for Regresion (GraphPad 6) of %Control vs dose (50% inhibitory concentration): unit from Dose head; for Average A/100MØ: average of Exp1-3
Procedure: We used a previously described methodology, with some modifications. Macrophage monolayers, grown in RMPIc medium, for 3 days, were detached from the bottom of the culture chamber, by physical treatment (low temperature and light strokes). Obtained macrophages were seeded in flat-bottom 96-well culture plates, at a density of 2 × 10^5 cells mL^−1 (40,000 macrophages/well), in a final volume of 200 µL. Plates were incubated for 2 h, and the supernatant was discarded to remove non-adhered macrophages. Medium was replaced with stationary-phase promastigotes suspended in 200 µL of RPMIc (2 × 10^6 parasites mL^−1, 400,000 parasites/well), at a macrophage: parasite ratio 1:10 [40]. The plates were incubated for 4 h. Afterwards the medium was replaced with fresh RPMIc and increasing concentrations of compounds or drugs tested were applied, in volumes of 2 µL, according to the different treatment groups. Plates were kept for 72 h, at 37 °C and 5% CO2. The medium was discarded and the wells were washed twice with PBS. Next, a Giemsa staining was performed in situ. It consisted of adding 200 µL of methanol/well, incubating for 5 min, discarding the fixative, and letting it dry at room temperature. Later, the Giemsa solution (10% in PBS w/v, 200 µL/well) was added, incubated for 10 min, and washed with PBS, allowing it to dry. Finally, the bottom of the plates was detached by percussion and the circular bottoms (wells) were fixed to slides with Permount synthetic resin, for later evaluation (Alcazar W., manuscript in preparation). Cell counting was performed with a 100× immersion objective. A minimum of 200 random macrophages were examined. The percentage of infected macrophages (% infection) and the average number of amastigotes present in infected macrophages (amastigotes) were determined. […] The infection rate represents the number of intracellular amastigotes per 100 macrophages evaluated. Additionally, the GI50 for the decrease in the infection rate was calculated. At least three independent experiments were performed. The effect of amphotericin-B (AmB) [Sigma-Aldrich, (St. Louis, MO, USA)] was included as positive control of the assay.

C=C(C)C1CCC2(C=NO)CCC3(C)C(CCC4C5(C)CCC(=NO)C(C)(C)C5CCC43C)C12 (stereo not shown) [Compound 18]
SI (CC50/GI50) VE98MR (J774.1 CC50 / intracellular amastigote GI50, Table 2): 27.32 | GI50 (VE98MR intracellular amastigotes, read-out: GI50 (µM) Experiment 1 Regresion): 0.65 µM | GI50 (VE98MR intracellular amastigotes, read-out: GI50 (µM) Experiment 2 Regresion): 1.09 µM | GI50 (VE98MR intracellular amastigotes, read-out: GI50 (µM) Experiment 3 Regresion): 0.89 µM | Regresion (GraphPad 6) of %Control vs dose (50% inhibitory concentration) (Exp1): 0.65 µM | Regresion (GraphPad 6) of %Control vs dose (50% inhibitory concentration) (Exp2): 1.09 µM | Regresion (GraphPad 6) of %Control vs dose (50% inhibitory concentration) (Exp3): 0.89 µM | Growth (%) Exp1 %Control (dose 0.10 µM, Exp1): 72.90% | Growth (%) Exp1 A/100MØ (dose 0.10 µM, Exp1): 117.33 | Growth (%) Exp1 A/MØ (dose 0.10 µM, Exp1): 2.20 | Growth (%) Exp1 Infección (dose 0.10 µM, Exp1): 53.33% | Growth (%) Exp2 %Control (dose 0.10 µM, Exp2): 77.33% | Growth (%) Exp2 A/100MØ (dose 0.10 µM, Exp2): 159.61 | Growth (%) Exp2 A/MØ (dose 0.10 µM, Exp2): 2.67 | Growth (%) Exp2 Infección (dose 0.10 µM, Exp2): 59.78% | Growth (%) Exp3 %Control (dose 0.10 µM, Exp3): 82.84% | Growth (%) Exp3 A/100MØ (dose 0.10 µM, Exp3): 205.27 | Growth (%) Exp3 A/MØ (dose 0.10 µM, Exp3): 3.68 | Growth (%) Exp3 Infección (dose 0.10 µM, Exp3): 55.78% | Average A/100MØ (dose 0.10 µM): 160.74 | Growth (%) Exp1 %Control (dose 0.50 µM, Exp1): 57.32% | Growth (%) Exp1 A/100MØ (dose 0.50 µM, Exp1): 92.25 | Growth (%) Exp1 A/MØ (dose 0.50 µM, Exp1): 2.05 | Growth (%) Exp1 Infección (dose 0.50 µM, Exp1): 45.00% | Growth (%) Exp2 %Control (dose 0.50 µM, Exp2): 61.05% | Growth (%) Exp2 A/100MØ (dose 0.50 µM, Exp2): 125.99 | Growth (%) Exp2 A/MØ (dose 0.50 µM, Exp2): 2.20 | Growth (%) Exp2 Infección (dose 0.50 µM, Exp2): 57.27% | Growth (%) Exp3 %Control (dose 0.50 µM, Exp3): 73.43% | Growth (%) Exp3 A/100MØ (dose 0.50 µM, Exp3): 181.96 | Growth (%) Exp3 A/MØ (dose 0.50 µM, Exp3): 3.24 | Growth (%) Exp3 Infección (dose 0.50 µM, Exp3): 56.16% | Average A/100MØ (dose 0.50 µM): 133.40 | Growth (%) Exp1 %Control (dose 1.00 µM, Exp1): 48.73% | Growth (%) Exp1 A/100MØ (dose 1.00 µM, Exp1): 78.42 | Growth (%) Exp1 A/MØ (dose 1.00 µM, Exp1): 2.26 | Growth (%) Exp1 Infección (dose 1.00 µM, Exp1): 34.70% | Growth (%) Exp2 %Control (dose 1.00 µM, Exp2): 59.91% | Growth (%) Exp2 A/100MØ (dose 1.00 µM, Exp2): 123.65 | Growth (%) Exp2 A/MØ (dose 1.00 µM, Exp2): 2.80 | Growth (%) Exp2 Infección (dose 1.00 µM, Exp2): 44.16% | Growth (%) Exp3 %Control (dose 1.00 µM, Exp3): 42.96% | Growth (%) Exp3 A/100MØ (dose 1.00 µM, Exp3): 106.46 | Growth (%) Exp3 A/MØ (dose 1.00 µM, Exp3): 2.36 | Growth (%) Exp3 Infección (dose 1.00 µM, Exp3): 45.11% | Average A/100MØ (dose 1.00 µM): 102.84 | Growth (%) Exp1 %Control (dose 5.00 µM, Exp1): 16.08% | Growth (%) Exp1 A/100MØ (dose 5.00 µM, Exp1): 25.87 | Growth (%) Exp1 A/MØ (dose 5.00 µM, Exp1): 1.60 | Growth (%) Exp1 Infección (dose 5.00 µM, Exp1): 16.17% | Growth (%) Exp2 %Control (dose 5.00 µM, Exp2): 28.34% | Growth (%) Exp2 A/100MØ (dose 5.00 µM, Exp2): 58.49 | Growth (%) Exp2 A/MØ (dose 5.00 µM, Exp2): 2.35 | Growth (%) Exp2 Infección (dose 5.00 µM, Exp2): 24.89% | Growth (%) Exp3 %Control (dose 5.00 µM, Exp3): 8.53% | Growth (%) Exp3 A/100MØ (dose 5.00 µM, Exp3): 21.14 | Growth (%) Exp3 A/MØ (dose 5.00 µM, Exp3): 1.13 | Growth (%) Exp3 Infección (dose 5.00 µM, Exp3): 18.71% | Average A/100MØ (dose 5.00 µM): 35.17 | Growth (%) Exp1 %Control (dose 10.00 µM, Exp1): 3.99% | Growth (%) Exp1 A/100MØ (dose 10.00 µM, Exp1): 6.42 | Growth (%) Exp1 A/MØ (dose 10.00 µM, Exp1): 1.33 | Growth (%) Exp1 Infección (dose 10.00 µM, Exp1): 4.83% | Growth (%) Exp2 %Control (dose 10.00 µM, Exp2): 9.85% | Growth (%) Exp2 A/100MØ (dose 10.00 µM, Exp2): 20.33 | Growth (%) Exp2 A/MØ (dose 10.00 µM, Exp2): 1.50 | Growth (%) Exp2 Infección (dose 10.00 µM, Exp2): 13.55% | Growth (%) Exp3 %Control (dose 10.00 µM, Exp3): 11.25% | Growth (%) Exp3 A/100MØ (dose 10.00 µM, Exp3): 27.88 | Growth (%) Exp3 A/MØ (dose 10.00 µM, Exp3): 1.35 | Growth (%) Exp3 Infección (dose 10.00 µM, Exp3): 20.65% | Average A/100MØ (dose 10.00 µM): 18.21 | GI50 (intracellular amastigotes, Supplementary Materials II, read-out: GI50 (µM) VE98MR, mean of three experiments): 0.877 µM and 0.88 µM
